Assay results taken from patent US9181266B2, “2-piperidin-1-yl-acetamide compounds for use as tankyrase inhibitors” (NOVARTIS AG, priority 2011, dated 2015).

Key:
[1] = target: tankyrase 2 protein PARP domain, TNKS2P (Homo sapiens (Human), UniProt Q9H2K2); assay: TNKS2 autoparsylation assay (LC/MS detection of nicotinamide); conditions: read-out: TNKS2 AP IC50, 20 nM enzyme, 250 μM β-NAD+, 60 min
Protocol: Biochemical Assay to Determine Compound Inhibition of TNKS Enzyme Activity
The autoparsylation activity of the TNKS 1/2 or PARP1/2 enzymes was measured by the liquid chromatography-mass spectrometry (LC/MS) detection of nicotinamide as readout. Compound activity in inhibiting the TNKS and PARP autoparsylation was evaluated by IC50 measurements. […] For the background control wells, 10 μL of the 5× quenching solution per well was added prior to the addition of β-NAD^+. The % Inhibition was calculated as: (Control−Sample)/(Control−Background)*100.

[2] = tested on: Wnt ligand-induced signaling in HEK293 cells; assay: Wnt-responsive Super-TOpFlash (STF) luciferase reporter gene assay; format: cell-based; conditions: Homo sapiens, Wnt3A condition medium
Protocol: Cellular Reporter Gene Assay to Determine Compound Inhibition of Wnt Signaling Activity
Compound activity in inhibiting Wnt ligand-induced signaling was measured using a Wnt-responsive Super-TOpFlash (STF) luciferase reporter gene assay in HEK293 cells. On day 1 of the assay, cells were plated at a density of 8000 cells per well of 384-well plate in 25 μl medium containing 5% fetal bovine serum (FBS). On the second day, […] condition medium (CM) produced from mouse L cells was added to the cells to induce Wnt signaling, followed by addition of 5 μL of compounds each well in 10-point serial dilution. On the third day, the luciferase activity was measured by the Bright-Glo™ Luciferase Assay System following manufacture's protocol (Promega, E2620). The Inhibition was calculated as: (Maximum Wnt-induced signaling−Sample)/(Maximum Wnt-induced signaling−Background)*100. “Maximum Wnt-induced signaling” is the STF signal level induced by 20% Wnt3A CM without compound; and “Background” is the STF signal level without the addition of Wnt3A CM or compound.

[3] = target: human tankyrase 1 PARP catalytic domain, TNKS1P (Homo sapiens (Human), UniProt O95271); assay: TNKS1 autoparsylation assay (LC/MS detection of nicotinamide); conditions: read-out: TNKS1 AP IC50, 20 nM enzyme, 250 μM β-NAD+, 60 min
Sequence of human tankyrase 1 PARP catalytic domain, TNKS1P (O95271 1112-1317): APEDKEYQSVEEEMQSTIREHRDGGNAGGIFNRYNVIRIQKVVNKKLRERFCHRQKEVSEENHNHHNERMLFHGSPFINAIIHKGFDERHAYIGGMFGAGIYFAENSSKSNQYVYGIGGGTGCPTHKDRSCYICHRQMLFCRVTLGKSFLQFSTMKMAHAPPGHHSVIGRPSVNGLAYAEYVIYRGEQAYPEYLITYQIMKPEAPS

[4] = tested on: Axin2 protein in SW480 cells; assay: Cellular ELISA assay of Axin2 protein stabilization; format: cell-based; conditions: Homo sapiens, 24 hrs, read-out: Axin AC50
Protocol: Cellular ELISA Assay to Determine Compound Effect on Stabilizing the Axin2 Protein Compound activity in stabilizing the Axin2 protein was measured by Sandwich Enzyme-Linked Immuosorbent (ELISA) assay in the colorectal cell line SW480. 30,000 SW480 cells were seeded per well in 96-well plate and incubated overnight prior to compound treatment. […] Cells were then washed with 100 μL of cold Phosphate Buffer Saline (PBS), and lysed in 125 μl of cold 1× lysis buffer (Cell Signaling Technology, 9803) supplemented with Protease inhibitor (Roche, 11836170) and Phosphatase inhibitors (Sigma, P2850, P5726). For the ELISA assay, anti Axin-2 capture antibody (Strategic Diagnostics) antibody was diluted to a concentration of 1 μg/ml (1:1000) in Carbonate Coating buffer, pH 9.2 (Sigma, C3041-50CAP). […], of the diluted anti Axin-2 capture antibody per well was then used to coat the 96-well ELISA plate (Thermo Electron Corp., MicroLite 1 flat bottom plate #7571) overnight at 4° C. […] After blocking, plates were then washed three times with 300 μl/well of wash solution. 100 μL of prepared SW480 cell lysate was then added to each well and incubated at room temperature for 2 hours while shaking gently. After washing, 100 μL of Biotinylated anti-Axin2 antibody (CST, 2151) was added to each well and incubated room temperature for 2 hours. 100 μL of Streptavidin-HRP (R&D systems, DY998) diluted 1:200 in 1% BSA/PBS was then added in each well and incubate for 30 mins at R/T in the dark.

[5] = tested on: Non-small lung cancer ABC-1 cells; assay: Cellular proliferation assay (CellTiter-Glo); format: cell-based; conditions: Homo sapiens, 72 h; ABC-1 cells, 3 days of compound treatment; read-out: ABC-1 IC50
Protocol: Cellular Proliferation Assay to Determine Compound Inhibition of Cancer Cell Growth
Viable cells were measured after 3 days of compound treatment using the CellTiter-Glo assay (Promega, G7570). Assay was performed following the manufacture protocol.

Sequence of tankyrase 2 protein PARP domain, TNKS2P (Q9H2K2 959-1164): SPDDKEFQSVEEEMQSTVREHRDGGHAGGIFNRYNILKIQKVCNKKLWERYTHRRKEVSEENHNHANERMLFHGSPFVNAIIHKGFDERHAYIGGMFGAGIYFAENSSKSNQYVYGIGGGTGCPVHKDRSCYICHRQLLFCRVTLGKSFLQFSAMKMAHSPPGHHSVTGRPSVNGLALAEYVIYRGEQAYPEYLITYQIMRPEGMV

Compound	IC50 [1] [nM]	IC50 [3] [nM]	IC50 [5] [nM]	IC50 [2] [nM]	AC50 [4] [nM]
O=C(c1ccc(F)cc1)C1CCN(CC(=O)N(Cc2nc3c(c(=O)[nH]2)COCC3)Cc2cccs2)CC1 [Example 13, 2-(4-(4-Fluorobenzoyl)piperidin-1-yl)-N-((4-oxo-4,5,7,8-tetrahydro-3H-pyrano[4,3-d]pyrimidin-2-yl)methyl)-N-(thiophen-2-ylmethyl)acetamide]	–	15.4 ± 2.3	40	–	26 ± 8
O=C(c1ccc(F)cc1)C1CCN(CC(=O)N(Cc2nc3c(c(=O)[nH]2)COCC3)Cc2ccc(S(=O)(=O)N3CCOCC3)s2)CC1 [Example 47, 2-[4-(4-Fluoro-benzoyl)-piperidin-1-yl]-N-[5-(morpholine-4-sulfonyl)-thiophen-2-ylmethyl]-N-(4-oxo-3,5,7,8-tetrahydro-4H-pyrano[4,3-d]pyrimidin-2-ylmethyl)-acetamide]	66 ± 2	561 ± 49	–	1830 ± 390	5000 ± 2300
C[C@@H](c1ccc(F)cc1)N(Cc1nc2c(c(=O)[nH]1)COCC2)C(=O)CN1CCC(C(=O)c2ccc(F)cc2)CC1 [Example 35, (S)-2-(4-(4-Fluorobenzoyl)piperidin-1-yl)-N-(1-(4-fluorophenyl)ethyl)-N-((4-oxo-4,5,7,8-tetrahydro-3H-pyrano[4,3-d]pyrimidin-2-yl)methyl)acetamide]	68 ± 1	256 ± 4	–	179 ± 20	–
COc1ccc(-c2nnc(C3CCN(CC(=O)NCc4nc5c(c(=O)[nH]4)COCC5)CC3)o2)cc1 [Example 56, 2-{4-[5-(4-Methoxy-phenyl)-[1,3,4]oxadiazol-2-yl]-piperidin-1-yl}-N-(4-oxo-3,5,7,8-tetrahydro-4H-pyrano[4,3-d]pyrimidin-2-ylmethyl)-acetamide]	89 ± 3	548 ± 39	641	207 ± 21	–
COc1ccc(C(=O)C2CCN(CC(=O)N(Cc3nc4c(c(=O)[nH]3)COCC4)CC3CC3)CC2)cc1 [Example 5, N-Cyclopropylmethyl-2-[4-(4-methoxy-benzoyl)-piperidin-1-yl]-N-(4-oxo-3,5,7,8-tetrahydro-4H-pyrano[4,3-d]pyrimidin-2-ylmethyl)-acetamide]	–	15.5 ± 3.5	32 ± 4	–	60 ± 60
O=C(c1ccc(F)cc1)C1CCN(CC(=O)N(Cc2ccncc2)Cc2nc3c(c(=O)[nH]2)COCC3)CC1 [Example 20, 2-(4-(4-Fluorobenzoyl)piperidin-1-yl)-N-((4-oxo-4,5,7,8-tetrahydro-3H-pyrano[4,3-d]pyrimidin-2-yl)methyl)-N-(pyridin-4-ylmethyl)acetamide]	206 ± 2	845 ± 12	–	2390 ± 250	–
CCCN(Cc1nc2c(c(=O)[nH]1)COCC2)C(=O)CN1CCC(C(=O)c2ccc(F)cc2)CC1 [Example 34, 2-(4-(4-Fluorobenzoyl)piperidin-1-yl)-N-((4-oxo-4,5,7,8-tetrahydro-3H-pyrano[4,3-d]pyrimidin-2-yl)methyl)-N-propylacetamide]	–	46 ± 1	–	–	1010 ± 70
O=C(CN1CCC(c2n[nH]c3cc(F)ccc23)CC1)NCc1nc2c(c(=O)[nH]1)COCC2 [Example 57, 2-[4-(6-Fluoro-1H-indazol-3-yl)-piperidin-1-yl]-N-(4-oxo-3,5,7,8-tetrahydro-4H-pyrano[4,3-d]pyrimidin-2-ylmethyl)acetamide]	270 ± 10	1210 ± 100	649	207 ± 35	–
O=C(CN1CCC(C(=O)c2ccc(F)cc2)CC1)NCc1nc2c(c(=O)[nH]1)COCC2 [Example 1, 2-(4-(4-Fluorobenzoyl)piperidin-1-yl)-N-((4-oxo-4,5,7,8-tetrahydro-3H-pyrano[4,3-d]pyrimidin-2-yl)methyl)acetamide]	–	64 ± 8	1050 ± 390	–	880 ± 210
O=C(c1ccc(F)cc1)C1CCN(CC(=O)N(Cc2ccccn2)Cc2nc3c(c(=O)[nH]2)COCC3)CC1 [Example 22, 2-(4-(4-Fluorobenzoyl)piperidin-1-yl)-N-((4-oxo-4,5,7,8-tetrahydro-3H-pyrano[4,3-d]pyrimidin-2-yl)methyl)-N-(pyridin-2-ylmethyl)acetamide]	–	120 ± 2	540 ± 280	–	360 ± 190
CN(Cc1nc2c(c(=O)[nH]1)COCC2)C(=O)CN1CCC(C(=O)c2ccc(F)cc2)CC1 [Example 30]	–	241 ± 30	–	–	6000 ± 500
O=C(c1ccc(F)cc1)C1CCN(CC(=O)N(Cc2cccnc2)Cc2nc3c(c(=O)[nH]2)COCC3)CC1 [Example 21, 2-(4-(4-Fluorobenzoyl)piperidin-1-yl)-N-((4-oxo-4,5,7,8-tetrahydro-3H-pyrano[4,3-d]pyrimidin-2-yl)methyl)-N-(pyridin-3-ylmethyl)acetamide]	42 ± 1	214 ± 2	–	460 ± 280	–

More lines, main results first:

IC50 [1] [nM]	IC50 [3] [nM]	IC50 [5] [nM]	Compound	IC50 [2] [nM]	AC50 [4] [nM]
244 ± 24	761 ± 18	–	O=C(CN1CCC(C(=O)N2CCc3c(Cl)cccc3C2)CC1)NCc1nc2c(c(=O)[nH]1)COCC2 [Example 81, 2-(4-(5-Chloro-1,2,3,4-tetrahydroisoquinoline-2-carbonyl)piperidin-1-yl)-N-((4-oxo-4,5,7,8-tetrahydro-3H-pyrano[4,3-d]pyrimidin-2-yl)methyl)acetamide]	> 10000	–
31200	> 19000	–	COc1ccc2c(c1)CCCN2C(=O)C1CCN(CC(=O)NCc2nc3c(c(=O)[nH]2)COCC3)CC1 [Example 80, 2-(4-(6-Methoxy-1,2,3,4-tetrahydroquinoline-1-carbonyl)piperidin-1-yl)-N-((4-oxo-4,5,7,8-tetrahydro-3H-pyrano[4,3-d]pyrimidin-2-yl)methyl)acetamide]	6400 ± 1100	–
17 ± 1	73 ± 5	6050	O=C(c1ccc(C(F)(F)F)cc1)C1CCN(CC(=O)N(Cc2nc3c(c(=O)[nH]2)COCC3)CC(F)F)CC1 [Example 75, N-(2,2-Difluoro-ethyl)-N-(4-oxo-3,5,7,8-tetrahydro-4H-pyrano[4,3-d]pyrimidin-2-ylmethyl)-2-[4-(4-trifluoromethyl-benzoyl)-piperidin-1-yl]-acetamide]	290 ± 130	–
386 ± 7	3800 ± 100	5850	COc1ccc(-c2cnn(C3CCN(CC(=O)NCc4nc5c(c(=O)[nH]4)COCC5)CC3)c2)cc1 [Example 60, 2-{4-[4-(4-Methoxy-phenyl)-pyrazol-1-yl]-piperidin-1-yl}-N-(4-oxo-3,5,7,8-tetrahydro-4H-pyrano[4,3-d]pyrimidin-2-ylmethyl)-acetamide]	1100 ± 110	–
311 ± 39	1490 ± 50	> 10000	COc1ccc2c(C3CCN(CC(=O)NCc4nc5c(c(=O)[nH]4)COCC5)CC3)n[nH]c2c1 [Example 58, 2-[4-(6-Methoxy-1H-indazol-3-yl)-piperidin-1-yl]-N-(4-oxo-3,5,7,8-tetrahydro-4H-pyrano[4,3-c]pyrimidin-2-ylmethyl)-acetamide]	4500 ± 400	–
188 ± 16	2250 ± 23	8170	O=C(CN1CCC(n2cc(-c3ccccc3)cn2)CC1)NCc1nc2c(c(=O)[nH]1)COCC2 [Example 59, N-(4-Oxo-3,5,7,8-tetrahydro-4H-pyrano[4,3-d]pyrimidin-2-ylmethyl)-2-[4-(4-phenyl-pyrazol-1-yl)-piperidin-1-yl]-acetamide]	3940 ± 120	–
